Data taken from patent US11535594B2, “Microbiocidal picolinamide derivatives” (Syngenta Participations AG, priority 2017, dated 2022).

What was measured:
[1] = tested on: Botryotinia fuckeliana (Botrytis cinerea); experiment: Botryotinia fuckeliana (Botrytis cinerea) / liquid culture (gray mould); type: cell-based; conditions: Vogels broth, 24° C., 3-4 days after application, compared to untreated checks, read-out: disease control (inhibition of growth, photometric)
Procedure: Botryotinia fuckeliana (Botrytis cinerea)/Liquid Culture (Gray Mould) Conidia of the fungus from cryogenic storage are directly mixed into nutrient broth (Vogels broth). After placing a (DMSO) solution of test compound into a microtiter plate (96-well format), the nutrient broth containing the fungal spores is added. The test plates are incubated at 24° C. and the inhibition of growth is determined photometrically 3-4 days after application.

[2] = tested on: Monographella nivalis (Microdochium nivale); experiment: Monographella nivalis (Microdochium nivale) / liquid culture (foot rot cereals); type: cell-based; conditions: PDB potato dextrose broth, 24° C., 4-5 days after application, compared to untreated checks, read-out: disease control (inhibition of growth, photometric)
Procedure: Monographella nivalis (Microdochium nivale)/Liquid Culture (Foot Rot Cereals) Conidia of the fungus from cryogenic storage are directly mixed into nutrient broth (PDB potato dextrose broth). After placing a (DMSO) solution of test compound into a microtiter plate (96-well format), the nutrient broth containing the fungal spores is added. The test plates are incubated at 24° C. and the inhibition of growth is determined photometrically 4-5 days after application.

[3] = tested on: Mycosphaerella arachidis (Cercospora arachidicola); experiment: Mycosphaerella arachidis (Cercospora arachidicola) / liquid culture (early leaf spot); type: cell-based; conditions: PDB potato dextrose broth, 24° C., 4-5 days after application, compared to untreated checks, read-out: disease control (inhibition of growth, photometric)
Procedure: Mycosphaerella arachidis (Cercospora arachidicola)/Liquid Culture (Early Leaf Spot) Conidia of the fungus from cryogenic storage are directly mixed into nutrient broth (PDB potato dextrose broth). After placing a (DMSO) solution of test compound into a microtiter plate (96-well format), the nutrient broth containing the fungal spores is added. The test plates are incubated at 24° C. and the inhibition of growth is determined photometrically 4-5 days after application.

[4] = tested on: Puccinia Recondite f. Sp. Tritici; experiment: Puccinia recondita f. sp. tritici / wheat / leaf disc preventative (brown rust); type: in vivo; conditions: foliar, wheat leaf segments cv. Kanzler, inoculated 1 day after application, assessed 7-9 days after application, compared to untreated, read-out: disease control
Procedure: Puccinia Recondite f. Sp. Tritici/Wheat/Leaf Disc Preventative (Brown Rust) Wheat leaf segments cv. Kanzler are placed on agar in multiwell plates (24-well format) and sprayed with the formulated test compound diluted in water. The leaf disks are inoculated with a spore suspension of the fungus 1 day after application. The inoculated leaf segments are incubated at 19° C. and 75% rh under a light regime of 12 h light/12 h darkness in a climate cabinet and the activity of a compound is assessed as percent disease control compared to untreated when an appropriate level of disease damage appears in untreated check leaf segments (7-9 days after application).

[5] = tested on: Mycosphaerella Graminicola (Septoria tritici); experiment: Mycosphaerella graminicola (Septoria tritici) / liquid culture (Septoria blotch); type: cell-based; conditions: Zymoseptoria tritici, PDB potato dextrose broth, 24° C., 4 to 5 days after application, compared to untreated checks, read-out: disease control (inhibition of growth, photometric)
Procedure: Mycosphaerella Graminicola (Septoria tritici)/Liquid Culture (Septoria Blotch) Conidia of the fungus from cryogenic storage are directly mixed into nutrient broth (PDB potato dextrose broth). After placing a (DMSO) solution of test compound into a microtiter plate (96-well format), the nutrient broth containing the fungal spores is added. The test plates are incubated at 24° C. and the inhibition of growth is determined photometrically 4 to 5 days after application.

[6] = tested on: Phaeosphaeria nodorum (Septoria nodorum); experiment: Phaeosphaeria nodorum (Septoria nodorum) / wheat / leaf disc preventative (glume blotch); type: in vivo; conditions: Parastagonospora nodorum, foliar, 120 h, wheat leaf segments cv. Kanzler, inoculated 2 days after application, assessed 5-7 days after application, compared to untreated, read-out: disease control
Procedure: Phaeosphaeria nodorum (Septoria nodorum)/Wheat/Leaf Disc Preventative (Glume Blotch) Wheat leaf segments cv. Kanzler are placed on agar in a multiwell plate (24-well format) and sprayed with the formulated test compound diluted in water. The leaf disks are inoculated with a spore suspension of the fungus 2 days after application. The inoculated test leaf disks are incubated at 20° C. and 75% rh under a light regime of 12 h light/12 h darkness in a climate cabinet and the activity of a compound is assessed as percent disease control compared to untreated when an appropriate level of disease damage appears in untreated check leaf disks (5-7 days after application).

[7] = tested on: Glomerella Lagenarium (Colletotrichum lagenarium); experiment: Glomerella lagenarium (Colletotrichum lagenarium) / liquid culture (anthracnose); type: cell-based; conditions: Colletotrichum orbiculare, PDB potato dextrose broth, 24° C., 3 to 4 days after application, compared to untreated checks, read-out: disease control (inhibition of growth, photometric)
Procedure: Glomerella Lagenarium (Colletotrichum lagenarium)/Liquid Culture (Anthracnose) Conidia of the fungus from cryogenic storage are directly mixed into nutrient broth (PDB potato dextrose broth). After placing a (DMSO) solution of test compound into a microtiter plate (96-well format), the nutrient broth containing the fungal spores is added. The test plates are incubated at 24° C. and the inhibition of growth is measured photometrically 3 to 4 days after application.

[8] = tested on: Magnaporthe grisea (Pyricularia oryzae); experiment: whole plant or invertebrate; type: in vivo; conditions: foliar, read-out: disease control

COc1ccnc(C(=O)N[C@@H](C)C(=O)ON(C)C(C)(c2ccc(Cl)cc2)c2ccc(Cl)cc2)c1OCOC(=O)C(C)C [I.u.26, [2-[[(1S)-2-[1,1-bis(4-chlorophenyl)ethyl-methyl-amino]oxy-1-methyl-2-oxo-ethyl]carbamoyl]-4-methoxy-3-pyridyl] oxymethyl 2-methylpropanoate]
≥ 80%: inhibition at 200 ppm [1] | inhibition at 200 ppm [2] | inhibition at 200 ppm [3] | pest or weed control at 200 ppm [4] | inhibition at 200 ppm [5]

COc1ccnc(C(=O)N[C@@H](C)C(=O)ON(C)C(C)(c2ccc(Cl)cc2)c2ccc(Cl)cc2)c1O [I.u.02, [1,1-bis(4-chlorophenyl)ethyl-methyl-amino] (2S)-2-[(3-hydroxy-4-methoxy-pyridine-2-carbonyl)amino]propanoate]
≥ 80%: inhibition at 200 ppm [1] | inhibition at 200 ppm [2] | inhibition at 200 ppm [3] | pest or weed control at 200 ppm [6] | inhibition at 200 ppm [7] | inhibition at 200 ppm [5]

COc1ccc(C(c2ccc(OC)cc2)N(C)OC(=O)[C@H](C)NC(=O)c2nccc(OC)c2O)cc1 [I.ab.01, [bis(4-methoxy phenyl)methyl-methyl-amino] (2S)-2-[(3-hydroxy-4-methoxy-pyridine-2-carbonyl)amino]propanoate]
≥ 80%: inhibition at 200 ppm [1] | inhibition at 200 ppm [3] | pest or weed control at 200 ppm [6] | inhibition at 200 ppm [7] | pest or weed control at 200 ppm [4] | inhibition at 200 ppm [5]

CCC(c1ccccc1)(c1ccccc1)N(C)OC(=O)[C@H](C)NC(=O)c1nccc(OC)c1O [I.m.03, [1,1-diphenylpropyl (methyl)amino] (2S)-2-[(3-hydroxy-4-methoxy-pyridine-2-carbonyl)amino]propanoate]
≥ 80%: inhibition at 200 ppm [1] | inhibition at 200 ppm [2] | inhibition at 200 ppm [3] | pest or weed control at 200 ppm [6] | inhibition at 200 ppm [5]

COc1ccnc(C(=O)N[C@@H](C)C(=O)ON(C)C(c2ccc(F)cc2)c2ccc(Cl)cc2)c1O (stereo partly drawn) [I.t.01, [[(4-chlorophenyl)-(4-fluorophenyl)methyl]-methyl-amino] (2S)-2-[(3-hydroxy-4-methoxy-pyridine-2-carbonyl)amino] propanoate]
≥ 80%: inhibition at 200 ppm [1] | inhibition at 200 ppm [3] | pest or weed control at 200 ppm [6] | inhibition at 200 ppm [7] | pest or weed control at 200 ppm [4]

COc1ccnc(C(=O)N[C@@H](C)C(=O)ON(C)C(c2ccc(F)cc2)c2ccc(F)cc2)c1O [I.s.01, [bis(4-fluorophenyl)methyl-methyl-amino] (2S)-2-[(3-hydroxy-4-methoxy-pyridine-2-carbonyl)amino]propanoate]
≥ 80%: inhibition at 200 ppm [2] | inhibition at 200 ppm [3] | pest or weed control at 200 ppm [6] | inhibition at 200 ppm [7] | pest or weed control at 200 ppm [4] | pest or weed control at 200 ppm [8] | inhibition at 200 ppm [5]

COc1ccnc(C(=O)N[C@@H](C)C(=O)ON(C)C(c2ccc(C)cc2)c2ccc(C)cc2)c1O [I.v.01, [bis-p-tolylmethyl (methyl)amino] (2S)-2-[(3-hydroxy-4-methoxy-pyridine-2-carbonyl)amino]propanoate]
≥ 80%: inhibition at 200 ppm [1] | inhibition at 200 ppm [2] | inhibition at 200 ppm [3] | inhibition at 200 ppm [7] | pest or weed control at 200 ppm [4] | inhibition at 200 ppm [5]
